How the values were obtained:
MGLL = target: T1, MGLL (Mus musculus, UniProt O35678); assay: In vitro competitive activity-based protein profiling, mouse brain proteome (MGLL); assay type: biochemical; details: for % Inh MGLL Brain (Mouse, μM): concentration not given (μM)
T1 construct: Brain; from tissue; host or cells: mouse brain proteome
T1 sequence (O35678 1-303): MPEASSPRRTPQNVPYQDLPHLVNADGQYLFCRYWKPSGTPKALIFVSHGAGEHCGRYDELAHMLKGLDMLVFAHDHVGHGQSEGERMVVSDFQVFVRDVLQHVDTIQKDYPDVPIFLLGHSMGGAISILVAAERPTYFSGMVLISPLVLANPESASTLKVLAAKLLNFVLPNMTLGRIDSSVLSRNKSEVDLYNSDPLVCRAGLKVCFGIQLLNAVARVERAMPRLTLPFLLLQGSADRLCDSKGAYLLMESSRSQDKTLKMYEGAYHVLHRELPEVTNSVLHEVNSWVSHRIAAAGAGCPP

ABHD6 = target: T2, ABHD6 (Mus musculus, UniProt Q8R2Y0); assay: In vitro competitive activity-based protein profiling, mouse brain proteome (ABHD6); assay type: biochemical; details: mouse brain proteome; for % Inh ABHD6 Brain (Mouse, μM): concentration not given (μM)
T2 construct: Brain; from tissue; host or cells: mouse brain proteome
T2 sequence (Q8R2Y0 1-336): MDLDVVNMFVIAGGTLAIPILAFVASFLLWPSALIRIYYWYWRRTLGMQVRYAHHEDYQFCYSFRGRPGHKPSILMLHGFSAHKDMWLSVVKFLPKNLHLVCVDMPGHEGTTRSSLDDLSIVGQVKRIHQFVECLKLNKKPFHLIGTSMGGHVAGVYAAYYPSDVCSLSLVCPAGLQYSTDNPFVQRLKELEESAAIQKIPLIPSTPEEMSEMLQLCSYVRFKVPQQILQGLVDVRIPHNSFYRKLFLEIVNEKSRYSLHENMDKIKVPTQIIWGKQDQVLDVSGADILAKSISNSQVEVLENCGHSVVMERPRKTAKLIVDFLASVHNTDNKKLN
Description: [The source words this procedure for another target and reports this target under the same test.] In Vitro Competitive Activity-Based Protein Profiling.
Proteomes (human prefrontal cortex or cell membrane fractions) (50 μL, 1.0 mg/mL total protein concentration) were preincubated with varying concentrations of inhibitors at 37° C. After 30 min, FP-Rh or HT-01 (1.0 μL, 50 μM in DMSO) was added and the mixture was incubated for another 30 min at room temperature. Reactions were quenched with SDS loading buffer (15 μL-4×) and run on SDS-PAGE.

| SMILES | % Inh MGLL Brain (Mouse, μM) (MGLL) | % Inh ABHD6 Brain (Mouse, μM) (ABHD6) | inhibition at 10 µM (MGLL; at 10 uM, read-out: % Inh MGLL Brain (Mouse)) [%] | inhibition at 10 µM (ABHD6; at 10 uM, read-out: % Inh ABHD6 Brain (Mouse)) [%] |
| --- | --- | --- | --- | --- |
| CS(=O)(=O)N1CC2(CCN(c3cc(Cl)ccc3CN3CCN(C(=O)OC(C(F)(F)F)C(F)(F)F)CC3)CC2)C1 [Example 212, 1,1,1,3,3,3-Hexafluoropropan-2-yl 4-(4-chloro-2-(2-(methylsulfonyl)-2,7-diazaspiro[3.5]nonan-7-yl)benzyl)piperazine-1-carboxylate] | ### (### is ≥75%) | ## (## is between 25 and 75%) | – | – |
| CN1CCC2(CCN(c3cc(Cl)ccc3CN3CCN(C(=O)OC(C(F)(F)F)C(F)(F)F)CC3)CC2)C1 [Example 177, 1,1,1,3,3,3-Hexafluoropropan-2-yl 4-(4-chloro-2-(2-methyl-2,8-diazaspiro[4.5]decan-8-yl)benzyl)piperazine-1-carboxylate] | ### (### is ≥75%) | # (# is ≤25%) | – | – |
| O=C(OC(C(F)(F)F)C(F)(F)F)N1CCC2(CC1)CN(Cc1ccccc1N1CCCC1)C2 [Example 88, 1,1,1,3,3,3-Hexafluoropropan-2-yl 2-(2-(pyrrolidin-1-yl)benzyl)-2,7-diazaspiro[3.5]nonane-7-carboxylate] | ### (### is ≥75%) | ### (### is ≥75%) | – | – |
| O=C(OC(C(F)(F)F)C(F)(F)F)N1CCC2(CC1)CN(Cc1ccccc1N1CCOCC1)C2 [Example 96, 1,1,1,3,3,3-Hexafluoropropan-2-yl 2-(2-morpholinobenzyl)-2,7-diazaspiro[3,5]nonane-7-carboxylate] | ### (### is ≥75%) | ### (### is ≥75%) | – | – |
| O=C(OC(C(F)(F)F)C(F)(F)F)N1CCC2(CCN(Cc3ccc(Cl)c(N4CCCC4)c3)CC2)C1 [Example 172, 1,1,1,3,3,3-Hexafluoropropan-2-yl 8-(4-chloro-3-(pynolidin-1-yl)benzyl)-2,8-diazaspiro[4.5]decane-2-carboxylate] | – | – | > 75 | 25 to 75 |
| O=C(OC(C(F)(F)F)C(F)(F)F)N1CCC2(CC1)CN(Cc1cccc(N3CCOCC3)c1)C2 [Example 90, 1,1,1,3,3,3-Hexafluoropropan-2-yl 2-(3-morpholinobenzyl)-2,7-diazaspiro[3,5]nonane-7-carboxylate] | ### (### is ≥75%) | ### (### is ≥75%) | – | – |
| O=C(OC(C(F)(F)F)C(F)(F)F)N1CCC2(CC1)CN(Cc1ccc(F)cc1)C2 [Example 93, 1,1,1,3,3,3-Hexafluoropropan-2-yl 2-(4-fluorobenzyl)-2,7-diazaspiro[3,5]nonane-7-carboxylate] | ### (### is ≥75%) | ### (### is ≥75%) | – | – |
| CCN1CCC2(CCN(c3cc(Cl)ccc3CN3CCN(C(=O)OC(C(F)(F)F)C(F)(F)F)CC3)CC2)C1 [Example 170, 1,1,1,3,3,3-Hexafluoropropan-2-yl 4-(4-chloro-2-(2-ethyl-2,8-diazaspiro[4.5]decan-8-yl)benzyl)piperazine-1-carboxylate] | ### (### is ≥75%) | # (# is ≤25%) | – | – |
| CS(=O)(=O)N1CCN(c2cccc(Cl)c2CN2CC3(CCN(C(=O)OC(C(F)(F)F)C(F)(F)F)CC3)C2)CC1 [Example 44, 1,1,1,3,3,3-Hexafluoropropan-2-yl 2-(2-chloro-6-(4-(methylsulfonyl)piperazin-1-yl)benzyl)-2,7-diazaspiro[3.5]nonane-7-carboxylate] | ### (### is ≥75%) | ### (### is ≥75%) | – | – |
| Cc1cc(-c2ccccc2)ccc1CN1CC2(CCN(C(=O)OC(C(F)(F)F)C(F)(F)F)CC2)C1 [Example 68, 1,1,1,3,3,3-Hexafluoropropan-2-yl 2-((3-methyl-[1,1'-biphenyl]-4-yl)methyl)-2,7-diazaspiro[3,5]nonane-7-carboxylate] | ### (### is ≥75%) | ### (### is ≥75%) | – | – |
| CS(=O)(=O)N1CC2(CCN(c3cc(Cl)ccc3CN3CCN(C(=O)OC(C(F)(F)F)C(F)(F)F)CC3)C2)C1 [Example 175, 1,1,1,3,3,3-Hexafluoropropan-2-yl 4-(4-chloro-2-(2-(methylsulfonyl)-2,6-diazaspiro[3.4]octan-6-yl)benzyl)piperazine-1-carboxylate] | ### (### is ≥75%) | # (# is ≤25%) | – | – |
| O=C(OC(C(F)(F)F)C(F)(F)F)N1CCC2(CC1)CN(Cc1ccc(C(F)(F)F)cc1N1CCOCC1)C2 [Example 36, 1,1,1,3,3,3-Hexafluoropropan-2-yl 2-(2-morpholino-4-(trifluoromethyl)benzyl)-2,7-diazaspiro[3.5]nonane-7-carboxylate] | ### (### is ≥75%) | ### (### is ≥75%) | – | – |
| O=C(OC(C(F)(F)F)C(F)(F)F)N1CCC2(CC1)CN(Cc1ccc(Cl)cc1N1CCCC1)C2 [Example 34] | ### (### is ≥75%) | ### (### is ≥75%) | – | – |
| CC(=O)N1CC2(CCN(c3ccccc3CN3CCCCC34CN(C(=O)OC(C(F)(F)F)C(F)(F)F)C4)C2)C1 [Example 231, 1,1,1,3,3,3-Hexafluoropropan-2-yl 5-(2-(2-acetyl-2,6-diazaspiro[3.4]octan-6-yl)benzyl)-2,5-diazaspiro[3.5]nonane-2-carboxylate] | ## (## is between 25 and 75%) | ## (## is between 25 and 75%) | – | – |
| O=C(OC(C(F)(F)F)C(F)(F)F)N1CCC2(CC1)CN(Cc1ccc(Cl)cc1N1CCCCC1)C2 [Example 38, 1,1,1,3,33-Hexafluoropropan-2-yl 2-(4-chloro-2-(piperidin-1-yl)benzyl)-2,7-diazaspiro[3.5]nonane-7-carboxylate] | ### (### is ≥75%) | ## (## is between 25 and 75%) | – | – |
| O=C(OC(C(F)(F)F)C(F)(F)F)N1CC2(CCN(Cc3ccc(N4CCOCC4)cc3Cl)CC2)C1 [Example 70, 1,1,1,3,3,3-Hexafluoropropan-2-yl 7-(2-chloro-4-morpholinobenzyl)-2,7-diazaspiro[3.5]nonane-2-carboxylate] | ### (### is ≥75%) | ### (### is ≥75%) | – | – |
| CC(=O)N1CCCc2cccc(CN3CCC4(CC3)CN(C(=O)OC(C(F)(F)F)C(F)(F)F)C4)c21 [Example 152, 1,1,1,3,3,3-Hexafluoropropan-2-yl 7-((1-acetyl-1,2,3,4-tetrahydroquinolin-8-yl)methyl)-2,7-diazaspiro[3.5]nonane-2-carboxylate] | ### (### is ≥75%) | ### (### is ≥75%) | – | – |
| CS(=O)(=O)N1CC2CN(c3cc(Cl)ccc3CN3CCN(C(=O)OC(C(F)(F)F)C(F)(F)F)CC3)CC2C1 (stereo not drawn) [Example 203, 1,1,1,3,3,3-Hexafluoropropan-2-yl 4-(4-chloro-2-(5-(methylsulfonyl)hexahydropyrrolo[3,4-c]pyrrol-2(lH)-yl)benzyl)piperazine-l - carboxylate] | ### (### is ≥75%) | ### (### is ≥75%) | – | – |

— patent US11161856B2 (H. Lundbeck A/S, priority 2017, dated 2021)
